Measured values as given in paper PMC5884628 (International journal of biological macromolecules, 2016).

How the values were obtained:
E. coli ATP synthase = conditions: ref [18], [19]; cited from earlier work
E. coli = conditions: ref [18], [19]; cited from earlier work
erythrocytes = conditions: ref [26], [27]; cited from earlier work
Staphylococcus aureus = conditions: ref [26], [27], cited from earlier work
[1] = ref [26], [27]; cited from earlier work
P. aeruginosa = conditions: rat models; ref [26], [27]; cited from earlier work
[2] = tested on: human pathogenic bacteria; multi-drug resistant bacterial strains; conditions: broad spectrum of microbes; ref [26], [27]; cited from earlier work
Escherichia coli = conditions: ref [26], [27]; cited from earlier work
[3] = tested on: wild-type E. coli strain (pBWU13.4/DK8); assay: Growth of wild-type E. coli in the presence of venom peptides; assay type: cell-based, Escherichia coli; conditions: wild-type in comparison to null strain
[4] = tested on: burns and acute infections; conditions: ref [26], [27]; cited from earlier work
Pseudomonas aeruginosa = conditions: ref [26], [27], cited from earlier work
[5] = tested on: null E. coli strain (pUC118/DK8); assay: Growth of null E. coli in the presence of venom peptides; assay type: cell-based, Escherichia coli; conditions: null strain in comparison to wild-type
[6] = tested on: wild-type membrane bound F1Fo ATP synthase; assay: Inhibition of membrane bound F1Fo ATPase activity by venom peptides; assay type: biochemical, Escherichia coli; conditions: 60 min preincubation at RT, pH 8.0; Fig. 2
melanoma cell = conditions: ref [31]; cited from earlier work

**Q.** Which “inhibition of E. coli ATP synthase” value (E. coli ATP synthase) does the source give for melittin here?
**A.** Its value is “potently inhibit”.

**Q.** And the E. coli growth (E. coli)?
**A.** Its E. coli growth is “abrogation of E. coli growth”.

**Q.** What does the source list for KFFRKLKKSVKKRAKEFFKKPRVIGVSIPF [BF-30]?
**A.** hemolytic activity (erythrocytes): no obvious hemolytic; effectiveness against drug-resistant Staphylococcus aureus (Staphylococcus aureus; drug-resistant): effective; time to kill S. aureus (Staphylococcus aureus): less than 120 minutes; cytotoxic activity [1]: no obvious hemolytic or cytotoxic activity; P. aeruginosa colony formation (P. aeruginosa): significantly reduced; subsequent infection and inflammation (P. aeruginosa): prevented; antimicrobial activity in comparison to gentamicin, ampicillin, or bacitracin [2]: stronger antimicrobial activity; effectiveness against drug-resistant Escherichia coli (Escherichia coli): effective; inhibition of wild-type E. coli (in words) [3]: potent inhibition; effectiveness in burns and acute infections [4]: effective; effectiveness against drug-resistant Pseudomonas aeruginosa (Pseudomonas aeruginosa; drug-resistant): effective; time to kill P. aeruginosa (Pseudomonas aeruginosa): less than 120 minutes; inhibition of null E. coli (in words) [5]: partial inhibition; inhibition of ATP synthase (in words) [6]: strong inhibition of ATP synthase; melanoma cell proliferation (melanoma cell): selectively inhibit melanoma cell proliferation
